# From US8722123B2, “Antimicrobial composition and use as food treatment” (priority 2008, dated 2014)
# Marks after values point to notes of the source that are not given here.
# Key:
# [1] = tested on: S. typhimurium DT 104 on alfalfa seeds; assay: S. typhimurium DT 104 inactivation on alfalfa seeds; assay type: cell-based, Salmonella typhimurium DT104; set-up: key to S. typhimurium DT 104 counts on seeds: +: Below the minimum detection level by direct plating (<1.7 log CFU/ml), but positive by enrichment culture.; −: Negative by direct plating and enrichment culture; conditions: for S. typhimurium DT 104 counts on seeds: alfalfa seeds inoculated with 10^8 CFU/g
# [2] = tested on: alfalfa seed; assay: Seed germination percentage; conditions: treated for 1 hour at 21° C.
# Procedure: To determine the germination percentage, treated and control seeds (5 gram per replicate) were placed on the surface of a plastic tray. A second tray containing 200 ml of sterile deionized water was placed with tray with seeds and water dropped into lower tray to maintain uniform moisture. The seeds were incubated at approximately 22° C. for 72 h.
compound,measurement,setting,value
"[Ca+2].[O-]Cl.[O-]Cl [20,000 ppm, Ca(OCl)2, pH 11.4, calcium hypochlorite]",S. typhimurium DT 104 counts on seeds,"[1]; dried 4 h at 21° C., 0 min of exposure","+^b (Below the minimum detection level by direct plating (<1.7 log CFU/ml), but positive by enrichment culture.)"
same,S. typhimurium DT 104 counts on seeds,"[1]; dried 4 h at 21° C., 1 min of exposure",−^c
same,S. typhimurium DT 104 counts on seeds,"[1]; dried 4 h at 21° C., 2 min of exposure",−
same,S. typhimurium DT 104 counts on seeds,"[1]; dried 4 h at 21° C., 5 min of exposure",−
same,S. typhimurium DT 104 counts on seeds,"[1]; dried 4 h at 21° C., 10 min of exposure",−
same,S. typhimurium DT 104 counts on seeds,"[1]; dried 4 h at 21° C., 20 min of exposure",−
same,S. typhimurium DT 104 counts on seeds,"[1]; dried 4 h at 21° C., 30 min of exposure",−
same,S. typhimurium DT 104 counts on seeds,"[1]; dried 4 h at 21° C., 60 min of exposure",−
same,S. typhimurium DT 104 counts on seeds,"[1]; dried 24 h at 21° C., 0 min of exposure","+ (Below the minimum detection level by direct plating (<1.7 log CFU/ml), but positive by enrichment culture.)"
same,S. typhimurium DT 104 counts on seeds,"[1]; dried 24 h at 21° C., 1 min of exposure","+ (Below the minimum detection level by direct plating (<1.7 log CFU/ml), but positive by enrichment culture.)"
same,S. typhimurium DT 104 counts on seeds,"[1]; dried 24 h at 21° C., 2 min of exposure",−
same,S. typhimurium DT 104 counts on seeds,"[1]; dried 24 h at 21° C., 5 min of exposure",−
same,S. typhimurium DT 104 counts on seeds,"[1]; dried 24 h at 21° C., 10 min of exposure",−
same,S. typhimurium DT 104 counts on seeds,"[1]; dried 24 h at 21° C., 20 min of exposure",−
same,S. typhimurium DT 104 counts on seeds,"[1]; dried 24 h at 21° C., 30 min of exposure",−
same,S. typhimurium DT 104 counts on seeds,"[1]; dried 24 h at 21° C., 60 min of exposure",−
same,S. typhimurium DT 104 counts on seeds,"[1]; dried 48 h at 21° C., 0 min of exposure","+ (Below the minimum detection level by direct plating (<1.7 log CFU/ml), but positive by enrichment culture.)"
same,S. typhimurium DT 104 counts on seeds,"[1]; dried 48 h at 21° C., 1 min of exposure","+ (Below the minimum detection level by direct plating (<1.7 log CFU/ml), but positive by enrichment culture.)"
same,S. typhimurium DT 104 counts on seeds,"[1]; dried 48 h at 21° C., 2 min of exposure",−
same,S. typhimurium DT 104 counts on seeds,"[1]; dried 48 h at 21° C., 5 min of exposure",−
same,S. typhimurium DT 104 counts on seeds,"[1]; dried 48 h at 21° C., 10 min of exposure","+ (Below the minimum detection level by direct plating (<1.7 log CFU/ml), but positive by enrichment culture.)"
same,S. typhimurium DT 104 counts on seeds,"[1]; dried 48 h at 21° C., 20 min of exposure",−
same,S. typhimurium DT 104 counts on seeds,"[1]; dried 48 h at 21° C., 30 min of exposure",−
same,S. typhimurium DT 104 counts on seeds,"[1]; dried 48 h at 21° C., 60 min of exposure",−
same,S. typhimurium DT 104 counts on seeds,"[1]; dried 72 h at 21° C., 0 min of exposure",−
same,S. typhimurium DT 104 counts on seeds,"[1]; dried 72 h at 21° C., 1 min of exposure",−
same,S. typhimurium DT 104 counts on seeds,"[1]; dried 72 h at 21° C., 2 min of exposure",−
same,S. typhimurium DT 104 counts on seeds,"[1]; dried 72 h at 21° C., 5 min of exposure",−
same,S. typhimurium DT 104 counts on seeds,"[1]; dried 72 h at 21° C., 10 min of exposure",−
same,S. typhimurium DT 104 counts on seeds,"[1]; dried 72 h at 21° C., 20 min of exposure","+ (Below the minimum detection level by direct plating (<1.7 log CFU/ml), but positive by enrichment culture.)"
same,S. typhimurium DT 104 counts on seeds,"[1]; dried 72 h at 21° C., 30 min of exposure","+ (Below the minimum detection level by direct plating (<1.7 log CFU/ml), but positive by enrichment culture.)"
same,S. typhimurium DT 104 counts on seeds,"[1]; dried 72 h at 21° C., 60 min of exposure",−
same,Salmonella level after treatment,"[1]; seeds dried 24 h, 48 h, or 72 h, 5 min","undetectable by direct plating, but still detectable by enrichment culture"
same,germination rate of alfalfa seed,[2],47.3%
